# Tests used:
# Assay in all cases: biochemical
# [1] = molecular target: T1, panel of 374 wild-type kinases (Homo sapiens, UniProt P36507); conditions: read-out: % Enzyme Activity (relative to DMSO controls), MEK2
# T1 construct: purchased Reaction Biology Corporation
# [2] = molecular target: T2, panel of 374 wild-type kinases (Homo sapiens, UniProt Q96SB4); conditions: read-out: % Enzyme Activity (relative to DMSO controls), kinase SRPK1
# T2 construct: purchased Reaction Biology Corporation
# [3] = molecular target: T3, panel of 374 wild-type kinases (Homo sapiens, UniProt Q96NX5); conditions: read-out: % Enzyme Activity (relative to DMSO controls), CAMK1g
# T3 construct: purchased Reaction Biology Corporation
# [4] = molecular target: T4, panel of 374 wild-type kinases (Homo sapiens, UniProt Q8IVH8); conditions: read-out: % Enzyme Activity (relative to DMSO controls), GLK/MAP4K3
# T4 construct: purchased Reaction Biology Corporation
# T4 sequence (Q8IVH8 1-894): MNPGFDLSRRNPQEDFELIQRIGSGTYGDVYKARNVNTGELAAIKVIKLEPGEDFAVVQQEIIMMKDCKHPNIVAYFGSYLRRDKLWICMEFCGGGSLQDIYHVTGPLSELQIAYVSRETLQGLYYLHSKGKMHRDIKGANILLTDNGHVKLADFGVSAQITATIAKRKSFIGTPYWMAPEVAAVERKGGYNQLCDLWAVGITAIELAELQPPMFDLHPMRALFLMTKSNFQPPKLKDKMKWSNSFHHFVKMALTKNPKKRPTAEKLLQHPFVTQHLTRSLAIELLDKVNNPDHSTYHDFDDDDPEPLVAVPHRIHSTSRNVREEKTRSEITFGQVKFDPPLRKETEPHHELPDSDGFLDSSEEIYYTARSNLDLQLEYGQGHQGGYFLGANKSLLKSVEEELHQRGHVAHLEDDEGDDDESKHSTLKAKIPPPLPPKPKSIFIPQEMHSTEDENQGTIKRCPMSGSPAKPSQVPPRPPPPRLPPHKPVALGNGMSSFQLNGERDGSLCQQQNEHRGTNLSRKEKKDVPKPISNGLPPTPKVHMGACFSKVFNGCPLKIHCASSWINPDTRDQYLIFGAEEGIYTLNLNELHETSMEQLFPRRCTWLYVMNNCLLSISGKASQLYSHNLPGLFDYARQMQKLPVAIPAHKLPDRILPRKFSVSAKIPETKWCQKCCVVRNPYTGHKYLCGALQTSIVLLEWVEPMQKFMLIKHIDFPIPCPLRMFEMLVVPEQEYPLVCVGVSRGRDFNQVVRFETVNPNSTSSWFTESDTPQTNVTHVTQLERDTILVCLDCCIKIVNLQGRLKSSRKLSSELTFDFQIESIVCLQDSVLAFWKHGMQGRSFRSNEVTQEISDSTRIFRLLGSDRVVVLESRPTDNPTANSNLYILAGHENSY
# [5] = molecular target: T5, panel of 374 wild-type kinases (Homo sapiens, UniProt P49759); conditions: read-out: % Enzyme Activity (relative to DMSO controls), CLK1
# T5 construct: purchased Reaction Biology Corporation
# [6] = molecular target: T6, panel of 374 wild-type kinases (Homo sapiens, UniProt Q12851); conditions: read-out: % Enzyme Activity (relative to DMSO controls), GCK/MAP4K2
# T6 construct: purchased Reaction Biology Corporation
# T6 sequence (Q12851 1-820): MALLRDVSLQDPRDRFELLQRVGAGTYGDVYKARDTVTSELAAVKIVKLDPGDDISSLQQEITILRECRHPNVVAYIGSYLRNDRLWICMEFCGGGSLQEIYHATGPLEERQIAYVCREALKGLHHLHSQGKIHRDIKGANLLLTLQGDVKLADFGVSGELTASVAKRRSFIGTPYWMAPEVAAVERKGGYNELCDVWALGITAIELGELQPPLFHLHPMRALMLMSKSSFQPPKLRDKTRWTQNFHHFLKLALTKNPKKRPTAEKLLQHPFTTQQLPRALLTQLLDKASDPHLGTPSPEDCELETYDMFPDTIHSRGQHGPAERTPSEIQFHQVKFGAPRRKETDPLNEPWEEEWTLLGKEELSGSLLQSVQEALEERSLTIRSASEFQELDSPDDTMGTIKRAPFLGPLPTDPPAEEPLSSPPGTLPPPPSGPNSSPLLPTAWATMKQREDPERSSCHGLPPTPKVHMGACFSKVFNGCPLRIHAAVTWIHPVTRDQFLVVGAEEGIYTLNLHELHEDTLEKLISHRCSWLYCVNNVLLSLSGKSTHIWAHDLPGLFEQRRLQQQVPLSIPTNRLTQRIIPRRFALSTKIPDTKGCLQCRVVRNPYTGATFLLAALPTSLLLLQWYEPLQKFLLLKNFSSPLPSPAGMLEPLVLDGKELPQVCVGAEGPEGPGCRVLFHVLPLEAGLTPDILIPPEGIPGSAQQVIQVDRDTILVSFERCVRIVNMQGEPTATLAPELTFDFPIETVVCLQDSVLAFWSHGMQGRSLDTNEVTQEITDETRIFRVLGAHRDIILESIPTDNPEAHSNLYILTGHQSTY
# [7] = molecular target: T7, panel of 374 wild-type kinases (Homo sapiens, UniProt Q13554); conditions: read-out: % Enzyme Activity (relative to DMSO controls), CAMK2b
# T7 construct: purchased Reaction Biology Corporation
# [8] = molecular target: T8, panel of 374 wild-type kinases (Homo sapiens, UniProt Q9UEE5); conditions: read-out: % Enzyme Activity (relative to DMSO controls), DRAK1/STK17A
# T8 construct: purchased Reaction Biology Corporation
# T8 sequence (Q9UEE5 1-414): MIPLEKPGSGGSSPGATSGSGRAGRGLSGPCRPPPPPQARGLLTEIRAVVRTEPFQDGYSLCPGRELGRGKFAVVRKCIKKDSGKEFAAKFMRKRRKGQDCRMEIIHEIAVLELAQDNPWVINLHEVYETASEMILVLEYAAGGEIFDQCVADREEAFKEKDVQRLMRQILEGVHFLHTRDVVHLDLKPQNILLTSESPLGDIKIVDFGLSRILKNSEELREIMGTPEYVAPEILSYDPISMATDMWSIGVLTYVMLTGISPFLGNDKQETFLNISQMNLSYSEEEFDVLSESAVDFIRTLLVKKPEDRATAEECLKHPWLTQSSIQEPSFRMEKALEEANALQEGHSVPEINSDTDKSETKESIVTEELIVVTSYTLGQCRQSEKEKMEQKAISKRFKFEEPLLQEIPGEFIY
# [9] = molecular target: T9, panel of 374 wild-type kinases (Homo sapiens, UniProt Q13464); conditions: read-out: % Enzyme Activity (relative to DMSO controls), kinase ROCK1
# T9 construct: purchased Reaction Biology Corporation
# T9 sequence (Q13464 whole entry): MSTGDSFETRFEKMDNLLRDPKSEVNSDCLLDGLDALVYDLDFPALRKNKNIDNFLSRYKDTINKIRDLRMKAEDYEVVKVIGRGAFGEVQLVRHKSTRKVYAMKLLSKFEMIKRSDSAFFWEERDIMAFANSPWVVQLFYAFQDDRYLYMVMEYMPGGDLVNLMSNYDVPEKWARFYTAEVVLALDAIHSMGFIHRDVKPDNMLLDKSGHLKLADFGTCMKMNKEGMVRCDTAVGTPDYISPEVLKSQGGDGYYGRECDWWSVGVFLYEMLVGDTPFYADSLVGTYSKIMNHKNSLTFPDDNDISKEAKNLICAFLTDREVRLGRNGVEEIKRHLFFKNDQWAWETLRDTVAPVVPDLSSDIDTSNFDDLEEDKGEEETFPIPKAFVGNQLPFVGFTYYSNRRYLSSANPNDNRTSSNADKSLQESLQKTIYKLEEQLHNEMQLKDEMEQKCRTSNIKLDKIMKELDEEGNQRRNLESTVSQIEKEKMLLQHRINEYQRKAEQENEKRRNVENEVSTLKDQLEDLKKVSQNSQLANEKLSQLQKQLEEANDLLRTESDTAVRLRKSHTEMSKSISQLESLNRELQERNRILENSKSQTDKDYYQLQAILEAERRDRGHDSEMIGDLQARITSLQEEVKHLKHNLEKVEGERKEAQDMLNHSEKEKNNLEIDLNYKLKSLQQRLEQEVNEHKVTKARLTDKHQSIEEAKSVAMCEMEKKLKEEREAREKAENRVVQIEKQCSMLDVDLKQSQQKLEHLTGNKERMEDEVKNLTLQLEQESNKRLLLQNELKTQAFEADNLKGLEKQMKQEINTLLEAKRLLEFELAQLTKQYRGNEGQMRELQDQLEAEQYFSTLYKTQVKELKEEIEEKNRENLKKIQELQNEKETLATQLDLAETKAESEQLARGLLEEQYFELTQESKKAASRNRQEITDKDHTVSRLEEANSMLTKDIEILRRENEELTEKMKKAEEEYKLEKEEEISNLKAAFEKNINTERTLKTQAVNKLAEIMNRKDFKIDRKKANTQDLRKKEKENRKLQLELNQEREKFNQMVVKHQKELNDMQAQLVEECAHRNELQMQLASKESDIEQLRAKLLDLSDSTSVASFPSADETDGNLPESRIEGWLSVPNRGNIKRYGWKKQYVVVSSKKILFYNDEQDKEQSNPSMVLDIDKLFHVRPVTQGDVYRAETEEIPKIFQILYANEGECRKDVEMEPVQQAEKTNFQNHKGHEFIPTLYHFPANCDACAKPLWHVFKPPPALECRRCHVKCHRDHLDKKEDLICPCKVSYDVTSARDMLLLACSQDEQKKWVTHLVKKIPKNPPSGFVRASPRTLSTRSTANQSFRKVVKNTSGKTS
# T7 sequence (Q13554 whole entry): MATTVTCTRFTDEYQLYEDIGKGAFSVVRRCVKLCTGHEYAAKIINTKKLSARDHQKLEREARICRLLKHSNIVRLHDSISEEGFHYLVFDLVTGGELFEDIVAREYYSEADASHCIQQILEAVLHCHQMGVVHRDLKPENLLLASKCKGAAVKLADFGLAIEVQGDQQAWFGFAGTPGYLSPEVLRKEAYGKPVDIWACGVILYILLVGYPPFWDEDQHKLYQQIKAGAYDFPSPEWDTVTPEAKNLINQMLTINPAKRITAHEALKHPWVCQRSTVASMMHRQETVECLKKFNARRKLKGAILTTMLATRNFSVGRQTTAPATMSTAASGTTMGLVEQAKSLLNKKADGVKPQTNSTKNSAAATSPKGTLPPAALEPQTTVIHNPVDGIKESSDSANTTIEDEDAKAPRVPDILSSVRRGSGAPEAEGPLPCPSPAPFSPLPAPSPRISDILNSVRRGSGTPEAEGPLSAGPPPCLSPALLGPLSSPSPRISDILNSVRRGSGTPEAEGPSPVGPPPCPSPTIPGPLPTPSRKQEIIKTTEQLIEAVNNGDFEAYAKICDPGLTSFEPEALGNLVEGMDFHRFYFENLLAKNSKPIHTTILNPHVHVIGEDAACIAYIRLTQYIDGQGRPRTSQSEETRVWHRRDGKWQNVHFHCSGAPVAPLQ
# T3 sequence (Q96NX5 whole entry): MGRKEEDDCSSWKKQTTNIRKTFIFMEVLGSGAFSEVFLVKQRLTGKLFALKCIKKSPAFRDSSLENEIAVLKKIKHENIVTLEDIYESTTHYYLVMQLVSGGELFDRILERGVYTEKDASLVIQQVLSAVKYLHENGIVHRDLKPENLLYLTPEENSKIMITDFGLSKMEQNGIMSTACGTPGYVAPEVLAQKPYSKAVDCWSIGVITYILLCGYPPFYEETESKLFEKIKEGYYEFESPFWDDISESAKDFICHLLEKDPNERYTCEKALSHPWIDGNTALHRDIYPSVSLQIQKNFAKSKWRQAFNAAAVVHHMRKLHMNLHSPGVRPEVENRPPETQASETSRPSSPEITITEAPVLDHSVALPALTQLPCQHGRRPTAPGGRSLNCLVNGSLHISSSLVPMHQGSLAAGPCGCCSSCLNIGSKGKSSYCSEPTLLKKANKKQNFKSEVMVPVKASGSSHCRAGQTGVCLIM
# T1 sequence (P36507 whole entry): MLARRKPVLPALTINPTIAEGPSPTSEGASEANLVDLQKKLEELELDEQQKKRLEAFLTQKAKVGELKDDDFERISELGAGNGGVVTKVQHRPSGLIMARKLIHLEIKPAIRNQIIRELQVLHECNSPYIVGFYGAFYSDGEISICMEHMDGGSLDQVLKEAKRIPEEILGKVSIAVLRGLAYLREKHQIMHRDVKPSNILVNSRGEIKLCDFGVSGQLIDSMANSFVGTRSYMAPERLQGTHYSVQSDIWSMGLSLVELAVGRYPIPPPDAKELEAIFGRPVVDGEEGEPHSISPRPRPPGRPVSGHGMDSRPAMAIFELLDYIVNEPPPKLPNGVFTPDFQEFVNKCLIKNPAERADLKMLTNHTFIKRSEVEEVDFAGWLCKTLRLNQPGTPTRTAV
# T5 sequence (P49759 whole entry): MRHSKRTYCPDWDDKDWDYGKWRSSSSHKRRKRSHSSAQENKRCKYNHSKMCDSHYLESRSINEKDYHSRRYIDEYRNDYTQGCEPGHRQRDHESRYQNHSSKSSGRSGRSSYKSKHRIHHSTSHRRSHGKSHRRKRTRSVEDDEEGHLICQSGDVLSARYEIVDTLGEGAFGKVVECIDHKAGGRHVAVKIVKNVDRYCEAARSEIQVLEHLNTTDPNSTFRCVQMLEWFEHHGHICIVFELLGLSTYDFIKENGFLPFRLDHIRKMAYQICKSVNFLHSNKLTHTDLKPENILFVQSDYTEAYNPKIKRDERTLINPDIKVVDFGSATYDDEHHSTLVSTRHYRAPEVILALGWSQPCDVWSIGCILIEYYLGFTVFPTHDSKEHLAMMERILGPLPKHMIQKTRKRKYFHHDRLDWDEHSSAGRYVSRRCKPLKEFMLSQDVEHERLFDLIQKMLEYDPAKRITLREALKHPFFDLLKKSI
# T2 sequence (Q96SB4 whole entry): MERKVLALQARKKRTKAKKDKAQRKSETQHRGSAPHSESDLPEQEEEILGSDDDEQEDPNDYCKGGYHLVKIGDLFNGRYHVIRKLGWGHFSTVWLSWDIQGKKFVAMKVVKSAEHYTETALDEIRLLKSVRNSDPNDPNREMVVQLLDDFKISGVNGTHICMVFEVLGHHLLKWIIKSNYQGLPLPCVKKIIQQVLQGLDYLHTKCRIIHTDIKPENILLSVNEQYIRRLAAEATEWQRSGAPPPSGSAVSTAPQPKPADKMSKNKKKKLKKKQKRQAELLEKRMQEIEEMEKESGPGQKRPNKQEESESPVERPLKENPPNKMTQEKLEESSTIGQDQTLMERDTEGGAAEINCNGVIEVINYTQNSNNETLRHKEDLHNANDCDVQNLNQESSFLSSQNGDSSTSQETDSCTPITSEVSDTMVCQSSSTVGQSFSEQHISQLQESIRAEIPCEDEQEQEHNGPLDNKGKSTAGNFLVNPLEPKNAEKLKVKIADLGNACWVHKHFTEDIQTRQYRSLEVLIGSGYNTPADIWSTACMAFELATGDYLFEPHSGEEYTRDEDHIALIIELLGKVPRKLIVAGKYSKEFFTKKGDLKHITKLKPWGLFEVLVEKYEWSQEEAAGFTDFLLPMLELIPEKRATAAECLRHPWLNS
SMILES,remaining activity at 5 µM [1],remaining activity at 5 µM [2],remaining activity at 5 µM [3],remaining activity at 5 µM [4],remaining activity at 5 µM [5],remaining activity at 5 µM [6],remaining activity at 5 µM [7],remaining activity at 5 µM [8],remaining activity at 5 µM [9],remaining activity at 10 µM ([1]; 10 uM),remaining activity at 10 µM ([2]; 10 uM),remaining activity at 10 µM ([3]; 10 uM),remaining activity at 10 µM ([4]; 10 uM),remaining activity at 10 µM ([5]; 10 uM),remaining activity at 10 µM ([6]; 10 uM),remaining activity at 10 µM ([7]; 10 uM),remaining activity at 10 µM ([8]; 10 uM),remaining activity at 10 µM ([9]; 10 uM)
"O=C(Nc1cnn(-c2csc(C(=O)NC3COC3)c2)c1)Nc1ccccc1Cl [Compound 17, 4-(4-(3-(2-chlorophenyl)ureido)-1H-pyrazol-1-yl)-N-(oxetan-3-yl)thiophene-2-carboxamide]",92.2%,98.7%,94.2%,97.5%,81%,105%,105%,98.4%,109%,,,,,,,,,
"Cc1sc(C(=O)NC2COC2)cc1-n1cc(NC(=O)Nc2c(F)cccc2Cl)cn1 [Compound 27, 4-(4-(3-(2-chloro-6-fluorophenyl)ureido)-1H-pyrazol-1-yl)-5-methyl-N-(oxetan-3-yl)thiophene-2-carboxamide]",,,,,,,,,,99.5%,96.9%,93.1%,118%,98.4%,90.2%,100%,111%,96.8%
"O=C(Nc1cnn(-c2csc(C(=O)NC3COC3)c2)c1)Nc1c(F)cccc1Cl [Compound 25, 4-(4-(3-(2-chloro-6-fluorophenyl)ureido)-1H-pyrazol-1-yl)-N-(oxetan-3-yl)thiophene-2-carboxamide]",90.6%,104%,94%,100%,74.9%,95.3%,99.1%,89.4%,78.2%,,,,,,,,,
